Data reported in the supplement of paper PMC11061612.

What was measured:
Assay in all cases: combination Emax (second highest fraction inhibited in the dose matrix, 72 h); higher = more inhibition; extreme values may be limits of the assay
[1] = test system: COR-L88 (Small Cell Lung Carcinoma)
Summary of the method: (§1)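 Cell lines grown in DMEM/F12 or RPMI with 10% FBS were plated in 1536-well plates and held 24 hours at 37°C, 5% CO2 before 72 hours of exposure to two-drug dose matrices, with DMSO typically at 0.2%. CellTiter-Glo 2.0 luminescence gave viability, which was converted to inhibition. Vehicle wells were set to 0 and blank wells to 1. Combination Emax is the second-highest inhibition in the matrix, and Bliss excess is the observed combination effect minus the expected EA + EB − EA·EB, where EA and EB are the single-agent effects.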

[2] = test system: DBTRG-05MG (Glioblastoma)
Summary of the method: as §1

GAK (Melanoma) = test system: GAK (Melanoma)
Summary of the method: as §1

KALS-1 (Glioblastoma) = test system: KALS-1 (Glioblastoma)
Summary of the method: as §1

[3] = test system: LCLC-103H (Non-Small Cell Lung Carcinoma)
Summary of the method: as §1

[4] = test system: MOLP-8 (Plasma Cell Myeloma)
Summary of the method: as §1

[5] = test system: MOLT-13 (T-Lymphoblastic Leukemia)
Summary of the method: as §1

[6] = test system: MONO-MAC-6 (Acute Myeloid Leukemia)
Summary of the method: as §1

[7] = test system: NAMALWA (Burkitt's Lymphoma)
Summary of the method: as §1

[8] = test system: NCI-H1876 (Small Cell Lung Carcinoma)
Summary of the method: as §1

[9] = test system: OAW-28 (Ovarian Carcinoma)
Summary of the method: as §1

[10] = test system: P30-OHK (B-Lymphoblastic Leukemia)
Summary of the method: as §1

[11] = test system: P32-ISH (Burkitt's Lymphoma)
Summary of the method: as §1

[12] = test system: PA-TU-8988T (Pancreatic Carcinoma)
Summary of the method: as §1

[13] = test system: PL4 (Pancreatic Carcinoma)
Summary of the method: as §1

SK-N-SH (Neuroblastoma) = test system: SK-N-SH (Neuroblastoma)
Summary of the method: as §1

[14] = test system: SNU-407 (Colorectal Carcinoma)
Summary of the method: as §1

[15] = test system: SUP-M2 (T-Cell Non-Hodgkin's Lymphoma)
Summary of the method: as §1

T47D (Breast Carcinoma) = test system: T47D (Breast Carcinoma)
Summary of the method: as §1

[16] = test system: T84 (Colorectal Carcinoma)
Summary of the method: as §1

Row | Structure (SMILES) | combination Emax [1] | combination Emax [2] | combination Emax (GAK (Melanoma)) | combination Emax (KALS-1 (Glioblastoma)) | combination Emax [3] | combination Emax [4] | combination Emax [5] | combination Emax [6] | combination Emax [7] | combination Emax [8] | combination Emax [9] | combination Emax [10] | combination Emax [11] | combination Emax [12] | combination Emax [13] | combination Emax (SK-N-SH (Neuroblastoma)) | combination Emax [14] | combination Emax [15] | combination Emax (T47D (Breast Carcinoma)) | combination Emax [16]
1 | Cc1c2c(nn1C)CSCc1cc(n(C)n1)CSc1cc(c3ccccc3c1)OCCCc1c(C(=O)O)n(C)c3c-2c(Cl)ccc13 [AZD5991] + C=CCn1c(=O)c2cnc(Nc3ccc(N4CCN(C)CC4)cc3)nc2n1-c1cccc(C(C)(C)O)n1 [AZD1775] (first compound max 1 µM, partner max 1 µM) | 0.744 | 0.262 | 0.802 | 0.886 | 0.523 | 1 | 1 | 1 | 0.996 | 0.992 | 0.347 | 0.875 | 1 | 0.891 | 0.737 | 0.86 | 0.796 | 1 | 0.574 | 0.631
2 | CCN(CCO)CCCOc1ccc2c(Nc3cc(CC(=O)Nc4cccc(F)c4)[nH]n3)ncnc2c1 [AZD2811] + C=CCn1c(=O)c2cnc(Nc3ccc(N4CCN(C)CC4)cc3)nc2n1-c1cccc(C(C)(C)O)n1 [AZD1775] (first compound max 1 µM, partner max 1 µM) | 0.64 | 0.195 | 0.682 | 0.841 | 0.546 | 0.76 | 1 | 0.958 | 0.977 | 0.991 | 0.213 | 0.846 | 1 | 0.678 | 0.554 | 0.787 | 0.416 | 1 | 0.314 | 0.645
3 | CN(C)CCCOc1ccc(-c2ccc3ncc4c(c3c2)n(C2CCOCC2)c(=O)n4C)cn1 [AZD0156] + O=C(c1cc(Cc2n[nH]c(=O)c3ccccc23)ccc1F)N1CCN(C(=O)C2CC2)CC1 [Olaparib] (first compound max 3 µM, partner max 3 µM) | 0.16 | 0.152 | 0.193 | 0.135 | 0.289 | 0.67 | 0.397 | 0.461 | 0.487 | 0.807 | 0.284 | 0.668 | 0.628 | 0.211 | 0.34 | 0.292 | 0.296 | 0.606 | 0.366 | 0.353
4 | C[C@@H](c1ccc2nccn2c1)n1nnc2ncc(-c3cnn(C)c3)nc21 [Savolitinib] + CC1(C)CCC(CN2CCN(c3ccc(C(=O)NS(=O)(=O)c4ccc(NCC5CCOCC5)c([N+](=O)[O-])c4)c(Oc4cnc5[nH]ccc5c4)c3)CC2)=C(c2ccc(Cl)cc2)C1 [Venetoclax] (first compound max 1 µM, 7x7, partner max 1 µM) | 0.207 | 0.117 | 0.199 | 0.113 | 0.146 | 0.0876 | 0.467 | 0.213 | 0.213 | 0.0954 | 0.163 | 0.163 | 0.0681 | 0.165 | 0.125 | 0.32 | 0.231 | 0.182 | 0.153 | 0.0875
5 | CN(CCO)CC[C@H](CSc1ccccc1)Nc1ccc(S(=O)(=O)NC(=O)c2ccc(N3CCC([C@@H](O)c4ccccc4-c4ccc(Cl)cc4)CC3)cc2)cc1S(=O)(=O)C(F)(F)F [AZD4320] + CN(C)CCCOc1ccc(-c2ccc3ncc4c(c3c2)n(C2CCOCC2)c(=O)n4C)cn1 [AZD0156] (first compound max 1 µM, 7x7, partner max 1 µM) | 0.957 | 0.745 | 0.209 | 0.227 | 0.219 | 0.315 | 0.949 | 0.422 | 0.158 | 0.982 | 0.912 | 0.987 | 0.17 | 0.183 | 0.462 | 0.641 | 0.0943 | 0.388 | 0.283 | 0.108
6 | CC(=O)c1c(C)c2cnc(Nc3ccc(N4CCNCC4)cn3)nc2n(C2CCCC2)c1=O [Palbociclib] + Cc1c2c(nn1C)CSCc1cc(n(C)n1)CSc1cc(c3ccccc3c1)OCCCc1c(C(=O)O)n(C)c3c-2c(Cl)ccc13 [AZD5991] (first compound max 10 µM, 7x7, partner max 1 µM) | 0.307 | 0.169 | 0.369 | 0.229 | 0.329 | 1 | 1 | 1 | 0.956 | 0.534 | 0.277 | 0.811 | 1 | 0.229 | 0.263 | 0.575 | 0.621 | 1 | 0.413 | 0.119
7 | Cn1cnc2c(F)c(Nc3ccc(Br)cc3Cl)c(C(=O)NOCCO)cc21 [Selumetinib] + CC(C)n1c(=O)n(C)c2cnc3cc(F)c(-c4ccc(OCCCN5CCCCC5)nc4)cc3c21 [AZD1390] (first compound max 10 µM, 7x7, partner max 0.3 µM) | 0.198 | 0.315 | 0.626 | 0.405 | 0.138 | 0.325 | 0.456 | 0.231 | 0.136 | 0.272 | 0.332 | 0.217 | 0.101 | 0.321 | 0.567 | 0.146 | 0.507 | 0.168 | 0.109 | 0.397
8 | CS(=O)(=O)CCNCc1ccc(-c2ccc3ncnc(Nc4ccc(OCc5cccc(F)c5)c(Cl)c4)c3c2)o1 [Lapatinib] + C[C@@H](Oc1cc(-c2cnn(C3CCNCC3)c2)cnc1N)c1c(Cl)ccc(F)c1Cl [Crizotinib] (first compound max 10 µM, 7x7, partner max 10 µM) | 0.57 | 0.332 | 0.75 | 0.801 | 0.624 | 0.978 | 0.853 | 0.951 | 0.942 | 0.934 | 0.75 | 0.972 | 1 | 0.64 | 0.884 | 0.899 | 0.966 | 1 | 0.525 | 0.856
9 | CN(C)CCCOc1ccc(-c2ccc3ncc4c(c3c2)n(C2CCOCC2)c(=O)n4C)cn1 [AZD0156] + CCN(CCO)CCCOc1ccc2c(Nc3cc(CC(=O)Nc4cccc(F)c4)[nH]n3)ncnc2c1 [AZD2811] (first compound max 1 µM, 7x7, partner max 1 µM) | 0.127 | 0.154 | 0.198 | 0.214 | 0.29 | 0.603 | 0.99 | 0.743 | 0.402 | 0.853 | 0.175 | 0.834 | 0.962 | 0.219 | 0.256 | 0.479 | 0.287 | 0.94 | 0.282 | 0.023
10 | COc1nnc2ccc(N3CCC(c4ccc(OCCN5CCN(C)C(=O)[C@H]5C)cc4)CC3)nn12 [AZD5153] + C=CCn1c(=O)c2cnc(Nc3ccc(N4CCN(C)CC4)cc3)nc2n1-c1cccc(C(C)(C)O)n1 [AZD1775] (first compound max 1 µM, partner max 1 µM) | 0.677 | 0.369 | 0.471 | 0.723 | 0.549 | 0.956 | 1 | 0.989 | 0.969 | 0.99 | 0.701 | 1 | 0.982 | 0.778 | 0.662 | 0.645 | 0.89 | 0.996 | 0.505 | 0.349
11 | CC1(C)CCC(CN2CCN(c3ccc(C(=O)NS(=O)(=O)c4ccc(NCC5CCOCC5)c([N+](=O)[O-])c4)c(Oc4cnc5[nH]ccc5c4)c3)CC2)=C(c2ccc(Cl)cc2)C1 [Venetoclax] + CN(C)CCCOc1ccc(-c2ccc3ncc4c(c3c2)n(C2CCOCC2)c(=O)n4C)cn1 [AZD0156] (first compound max 1 µM, 7x7, partner max 1 µM) | 0.525 | 0.174 | 0.293 | 0.646 | 0.285 | 0.169 | 0.718 | 0.619 | 0.613 | 0.282 | 0.116 | 0.458 | 0.0131 | 0.179 | 0.248 | 0.394 | 0.234 | 0.264 | 0.344 | 0.19
12 | COc1cc2c(cc1OCCCCCOc1cc3c(cc1OC)C(=O)N1C=C(C)C[C@H]1C=N3)N=C[C@@H]1CC(C)=CN1C2=O [SG3199] + O=C(c1cc(Cc2n[nH]c(=O)c3ccccc23)ccc1F)N1CCN(C(=O)C2CC2)CC1 [Olaparib] (first compound max 0.001 µM, 7x7, partner max 10 µM) | 0.237 | 0.114 | 0.106 | 0.163 | 0.0713 | 0.233 | 0.226 | 0.234 | 0.575 | 0.7 | 0.245 | 0.31 | 0.247 | 0.206 | 0.204 | 0.274 | 0.182 | 0.839 | 0.164 | 0.0664
